# Target: T1, PKCβII/RACK1 interaction (Homo sapiens, UniProt P63244)
# T1 construct: 6-His
# Assay: PKCβII/RACK1 in vitro binding assay
# Details: Figure 2B
# Description: This assay was similar to the PKCε/RACK2 binding assay described above. 6-his-tagged RACK1 was cloned into a pET-30a(+) vector (Novagen, Merck KGaA, Darmstadt, Germany) and purified with Ni-NTA agarose (Qiagen, Hilden, Germany). Final elution was performed with 500 nM imidazole in elution buffer (20 mM Tris-HCl/300 mM NaCl, 20% glycerol, pH 7.5). The integrity of purified recombinant protein was analyzed by Coomassie Blue staining and Western blotting. Then 200 ng RACK1 was coated onto 96-well EIA/RIA high binding plates (Costar, Corning, New York, NY) at 4 °C on a shaker with gentle agitation overnight. Compound 8 was added at room temperature for 30 min. Then 500 ng of recombinant GST-tagged PKCβII (ProQinase) was activated with CaCl2, phosphatidylserine, and TPA for 10 min. The RACK1-coated plates with and without 8 were incubated for 1 h with activated PKCβII. The interaction was determined with a primary rabbit anti-GST antibody (Santa Cruz) and corresponding HRP-conjugated goat anti-rabbit HRP conjugated secondary antibody (Santa Cruz) as described above for the PKCε/RACK2 interaction.
compound,measurement,value
"CC(=O)c1cccc(NC(=O)c2sc3nc4cc5c(cc4cc3c2N)OCCO5)c1 [Compound 8, N-(3-acetylphenyl)-9-amino-2,3-dihydro-1,4-dioxino[2,3-g]thieno[2,3-b]quinoline-8-carboxamide]",Prevention of the PKCβII/RACK1 interaction,does not prevent
